Values joined by “and” are separate entries in the source; they are usually repeats but may differ in a detail not shown here. Identical values can stand only once.
Assays:
[1] = biological target: T1, DNA topoisomerase 2-alpha (Homo sapiens, UniProt P11388); experiment: Inhibition of human DNA topoisomerase IIalpha using plasmid pNO1 as a substrate after 30 mins
[2] = biological target: T1, DNA topoisomerase 2-alpha; experiment: Inhibition of human DNA topoisomerase IIalpha assessed as decatenation of kDNA at 15.625 uM after 90 mins by ethidium bromide staining; parameters: scale not given: the % may be the effect or the level left
[3] = biological target: T1, DNA topoisomerase 2-alpha; experiment: Inhibition of human DNA topoisomerase IIalpha assessed as decatenation of kDNA at 62.5 uM after 90 mins by ethidium bromide staining; parameters: scale not given: the % may be the effect or the level left
[4] = Lipophilicity, log P of the compound; format: physicochemical; conditions: octanol/water
[5] = biological target: T1, DNA topoisomerase 2-alpha; experiment: Inhibition of human DNA topoisomerase IIalpha assessed as decatenation of kDNA at 500 uM after 90 mins by ethidium bromide staining; parameters: scale not given: the % may be the effect or the level left
[6] = biological target: T1, DNA topoisomerase 2-alpha; experiment: Inhibition of human DNA topoisomerase IIalpha assessed as decatenation of kDNA at 125 uM after 90 mins by ethidium bromide staining; parameters: scale not given: the % may be the effect or the level left
[7] = biological target: T1, DNA topoisomerase 2-alpha; experiment: Inhibition of human DNA topoisomerase IIalpha assessed as decatenation of kDNA at 31.5 uM after 90 mins by ethidium bromide staining; parameters: scale not given: the % may be the effect or the level left
[8] = biological target: T1, DNA topoisomerase 2-alpha; experiment: Inhibition of human DNA topoisomerase IIalpha assessed as decatenation of kDNA at 3.9 uM after 90 mins by ethidium bromide staining; parameters: scale not given: the % may be the effect or the level left
[9] = biological target: T1, DNA topoisomerase 2-alpha; experiment: Inhibition of human DNA topoisomerase IIalpha assessed as decatenation of kDNA after 90 mins by ethidium bromide staining
[10] = biological target: T1, DNA topoisomerase 2-alpha; experiment: Inhibition of human DNA topoisomerase IIalpha assessed as reduction in enzyme-catalyzed supercoiling of relaxed circular pBR322 DNA by measuring linear DNA level at 3.9 uM after 60 mins by agarose gel electrophoresis; parameters: scale not given: the % may be the effect or the level left
[11] = biological target: T1, DNA topoisomerase 2-alpha; experiment: Inhibition of human DNA topoisomerase IIalpha assessed as reduction in enzyme-catalyzed supercoiling of relaxed circular pBR322 DNA by measuring linear DNA level at 31.5 uM after 60 mins by agarose gel electrophoresis; parameters: scale not given: the % may be the effect or the level left
[12] = biological target: T1, DNA topoisomerase 2-alpha; experiment: Inhibition of human DNA topoisomerase IIalpha assessed as reduction in enzyme-catalyzed supercoiling of relaxed circular pBR322 DNA by measuring linear DNA level at 125 uM after 60 mins by agarose gel electrophoresis; parameters: scale not given: the % may be the effect or the level left
[13] = biological target: T1, DNA topoisomerase 2-alpha; experiment: Inhibition of human DNA topoisomerase IIalpha assessed as reduction in enzyme-catalyzed supercoiling of relaxed circular pBR322 DNA by measuring linear DNA level at 500 uM after 60 mins by agarose gel electrophoresis; parameters: scale not given: the % may be the effect or the level left
[14] = biological target: T1, DNA topoisomerase 2-alpha; experiment: Inhibition of human DNA topoisomerase IIalpha assessed as reduction in enzyme-catalyzed supercoiling of relaxed circular pBR322 DNA by measuring linear DNA level at 3.9 uM after 60 mins by agarose gel electrophoresis in presence of 50 uM of etoposide; parameters: scale not given: the % may be the effect or the level left
[15] = biological target: T1, DNA topoisomerase 2-alpha; experiment: Inhibition of human DNA topoisomerase IIalpha assessed as reduction in enzyme-catalyzed supercoiling of relaxed circular pBR322 DNA by measuring linear DNA level at 31.5 uM after 60 mins by agarose gel electrophoresis in presence of 50 uM of etoposide; parameters: scale not given: the % may be the effect or the level left
[16] = biological target: T1, DNA topoisomerase 2-alpha; experiment: Inhibition of human DNA topoisomerase IIalpha assessed as reduction in enzyme-catalyzed supercoiling of relaxed circular pBR322 DNA by measuring linear DNA level at 125 uM after 60 mins by agarose gel electrophoresis in presence of 50 uM of etoposide; parameters: scale not given: the % may be the effect or the level left
[17] = biological target: T1, DNA topoisomerase 2-alpha; experiment: Inhibition of human DNA topoisomerase IIalpha assessed as reduction in enzyme-catalyzed supercoiling of relaxed circular pBR322 DNA by measuring linear DNA level at 500 uM after 60 mins by agarose gel electrophoresis in presence of 50 uM of etoposide; parameters: scale not given: the % may be the effect or the level left
[18] = biological target: T1, DNA topoisomerase 2-alpha; experiment: Inhibition of human DNA topoisomerase IIalpha assessed as reduction in enzyme-catalyzed supercoiling of relaxed circular pBR322 DNA by measuring linear DNA level after 60 mins by agarose gel electrophoresis
[19] = biological target: T1, DNA topoisomerase 2-alpha; experiment: Inhibition of human DNA topoisomerase IIalpha assessed as reduction in enzyme-catalyzed supercoiling of relaxed circular pBR322 DNA by measuring linear DNA level at 15.625 uM after 60 mins by agarose gel electrophoresis; parameters: scale not given: the % may be the effect or the level left
[20] = biological target: T1, DNA topoisomerase 2-alpha; experiment: Inhibition of human DNA topoisomerase IIalpha assessed as reduction in enzyme-catalyzed supercoiling of relaxed circular pBR322 DNA by measuring linear DNA level at 62.5 uM after 60 mins by agarose gel electrophoresis; parameters: scale not given: the % may be the effect or the level left
[21] = biological target: T1, DNA topoisomerase 2-alpha; experiment: Inhibition of human DNA topoisomerase IIalpha ATPase activity assessed as residual ATP hydrolysis at 3.9 uM measured up to 60 mins
[22] = biological target: T1, DNA topoisomerase 2-alpha; experiment: Inhibition of human DNA topoisomerase IIalpha ATPase activity assessed as residual ATP hydrolysis at 31.5 uM measured up to 60 mins
[23] = biological target: T1, DNA topoisomerase 2-alpha; experiment: Inhibition of human DNA topoisomerase IIalpha ATPase activity assessed as residual ATP hydrolysis at 500 uM measured up to 60 mins
[24] = biological target: T1, DNA topoisomerase 2-alpha; experiment: Inhibition of human DNA topoisomerase IIalpha ATPase activity assessed as residual ATP hydrolysis at 15.625 uM measured up to 60 mins
[25] = biological target: T1, DNA topoisomerase 2-alpha; experiment: Inhibition of human DNA topoisomerase IIalpha ATPase activity assessed as residual ATP hydrolysis at 62.5 uM measured up to 60 mins
[26] = biological target: T1, DNA topoisomerase 2-alpha; experiment: Inhibition of human DNA topoisomerase IIalpha assessed as reduction in enzyme-catalyzed supercoiling of relaxed circular pBR322 DNA by measuring linear DNA level at 50 uM after 60 mins by agarose gel electrophoresis; parameters: scale not given: the % may be the effect or the level left
[27] = biological target: T1, DNA topoisomerase 2-alpha; experiment: Inhibition of human DNA topoisomerase IIalpha ATPase activity assessed as residual ATP hydrolysis at 125 uM measured up to 60 mins

T1 sequence (P11388 whole entry): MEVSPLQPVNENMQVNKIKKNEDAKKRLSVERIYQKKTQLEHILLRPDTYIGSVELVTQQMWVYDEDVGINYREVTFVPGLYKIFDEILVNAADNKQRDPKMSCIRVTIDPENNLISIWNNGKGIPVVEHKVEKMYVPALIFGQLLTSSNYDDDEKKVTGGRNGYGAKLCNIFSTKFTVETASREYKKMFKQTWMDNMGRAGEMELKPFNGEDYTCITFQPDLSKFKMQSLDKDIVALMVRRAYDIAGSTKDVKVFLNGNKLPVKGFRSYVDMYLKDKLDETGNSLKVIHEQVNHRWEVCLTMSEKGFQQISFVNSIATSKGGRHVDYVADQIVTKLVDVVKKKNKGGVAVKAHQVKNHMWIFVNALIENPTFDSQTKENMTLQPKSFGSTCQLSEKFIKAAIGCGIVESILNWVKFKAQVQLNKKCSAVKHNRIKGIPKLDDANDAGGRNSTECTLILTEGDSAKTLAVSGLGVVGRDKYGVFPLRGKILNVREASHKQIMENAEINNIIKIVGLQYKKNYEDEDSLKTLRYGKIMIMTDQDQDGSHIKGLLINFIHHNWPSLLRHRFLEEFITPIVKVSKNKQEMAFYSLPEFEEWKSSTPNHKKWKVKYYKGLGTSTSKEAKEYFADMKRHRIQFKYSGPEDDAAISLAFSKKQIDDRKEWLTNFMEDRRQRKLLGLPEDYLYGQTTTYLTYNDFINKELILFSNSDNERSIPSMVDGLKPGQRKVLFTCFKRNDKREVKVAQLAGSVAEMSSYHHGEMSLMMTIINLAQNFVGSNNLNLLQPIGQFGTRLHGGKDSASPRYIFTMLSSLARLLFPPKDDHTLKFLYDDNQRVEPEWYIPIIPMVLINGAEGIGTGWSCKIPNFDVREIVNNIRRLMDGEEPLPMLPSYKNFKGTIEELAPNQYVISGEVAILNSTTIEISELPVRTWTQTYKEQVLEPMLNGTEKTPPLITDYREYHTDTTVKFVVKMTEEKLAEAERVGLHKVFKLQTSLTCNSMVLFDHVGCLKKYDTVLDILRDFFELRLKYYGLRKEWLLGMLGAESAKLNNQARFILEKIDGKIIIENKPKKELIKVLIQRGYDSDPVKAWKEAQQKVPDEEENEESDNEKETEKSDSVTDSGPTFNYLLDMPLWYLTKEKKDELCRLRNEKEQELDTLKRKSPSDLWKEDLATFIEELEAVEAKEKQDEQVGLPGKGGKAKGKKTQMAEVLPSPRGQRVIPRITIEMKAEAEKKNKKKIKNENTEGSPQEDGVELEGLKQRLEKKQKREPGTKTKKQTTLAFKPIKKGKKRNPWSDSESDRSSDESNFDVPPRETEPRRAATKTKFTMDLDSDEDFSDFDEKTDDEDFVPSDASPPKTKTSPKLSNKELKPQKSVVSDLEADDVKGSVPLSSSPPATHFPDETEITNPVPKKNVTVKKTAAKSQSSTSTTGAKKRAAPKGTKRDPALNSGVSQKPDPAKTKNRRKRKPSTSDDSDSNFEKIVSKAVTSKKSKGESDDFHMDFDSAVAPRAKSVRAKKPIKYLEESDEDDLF

Structure (SMILES)	IC50 [1]	further results
COc1cccc(CSc2nc(SCc3ccccc3)nc(=O)[nH]2)c1	0.485 mM	
O=c1nc(SCc2ccccc2)nc(SCc2ccc(F)cc2)[nH]1	0.147 mM	
N#Cc1cccc(CSc2nc(SCc3ccccc3)nc(=O)[nH]2)c1	0.528 mM	
COc1ccc(CCNc2nc(Cl)nc(Cl)n2)cc1OC	> 1 mM	
O=c1nc(SCc2ccccc2)nc(SCc2cccc(Cl)c2)[nH]1	0.0546 mM	Activity [2]: 18.2%; Activity [3]: 6.05%; logP [4]: 3.3; Activity [5]: 0%; Activity [6]: 0%; Activity [7]: 33.9%; Activity [8]: 87.3%; inhibition [9]: Dose-dependent effect; Activity [10]: 4.4%; Activity [11]: 1.2%; Activity [12]: 3.5%; Activity [13]: 2.5%; Activity [14]: 34.3%; Activity [15]: 33.5%; Activity [16]: 9.2%; Activity [17]: 5.3%; inhibition [18]: Dose-dependent effect
O=c1nc(SCc2ccccc2)nc(SCc2ccccc2Cl)[nH]1	0.0941 mM	logP [4]: 3.3
CC(C(C)N1CC(=O)NC(=O)C1)N1CC(=O)NC(=O)C1 (stereo unspecified)		Activity [2]: 18.2%; Activity [3]: 6.05%; Activity [7]: 10.8%; Activity [8]: 77.4%; Activity [10]: 1.7%; Activity [11]: 2.51%; Activity [19]: 3.1%; Activity [20]: 2.1%; Activity [21]: 0%; Activity [22]: 0%; Activity [23]: 0% and 18.7%; Activity [24]: 0%; Activity [25]: 0%
OCCc1ccccc1Nc1nc(Cl)nc(NCc2ccccc2)n1	> 1 mM	
CCc1ccccc1Nc1nc(Cl)nc(Cl)n1	> 1 mM	
O=c1nc(-c2ccccc2)nc(S)[nH]1	> 1 mM	
COc1ccccc1CSc1nc(SCc2ccccc2)nc(=O)[nH]1	> 1 mM	
COc1ccc(CNc2nc(Cl)nc(N(C)CCO)n2)cc1	> 1 mM	
COC(=O)c1ccccc1Nc1nc(Cl)nc(Cl)n1	> 1 mM	
O=C(O)CSC1N=C(SCc2ccccc2)NC(=O)N1 (stereo unspecified)	> 1 mM	
O=c1nc(SCc2ccccc2)nc(SCc2ccc(Cl)cc2)[nH]1	0.219 mM	
COc1nc(OC)nc(Sc2ccccc2C(=O)N[C@H](CCC(=O)OCc2ccccc2)C(=O)OCc2ccccc2)n1	> 1 mM	
COc1nc(Nc2ccccc2C(=O)O)nc(OC)n1	> 1 mM	
O=C1NC(SCc2ccccc2)=NC(Sc2ccccc2)N1 (stereo unspecified)	> 1 mM	
COc1nc(N[C@H](CCC(=O)O)C(=O)O)nc(OC)n1	> 1 mM	
O=c1nc(SCc2ccccc2)nc(S)[nH]1	> 1 mM	
O=c1nc(SCc2ccccc2)nc(SCC2CCC2)[nH]1	> 1 mM	
COc1ccc(CNc2nc(Cl)nc(Nc3ccccc3CCO)n2)cc1	> 1 mM	
OCCc1ccccc1Nc1nc(Cl)nc(Cl)n1	> 1 mM	
O=c1nc(SCc2ccccc2)nc(SCc2cccc([N+](=O)[O-])c2)[nH]1	0.488 mM	

Structure (SMILES)	IC50 [1]	further results
COc1nc(N[C@H](CCC(=O)OCc2ccccc2)C(=O)OCc2ccccc2)nc(OC)n1	> 1 mM	
COc1nc(Nc2ccccc2C(=O)N[C@@H](C)C(=O)OCc2ccccc2)nc(N[C@@H](C)C(=O)OCc2ccccc2)n1	> 1 mM	
COC(=O)c1ccccc1Oc1nc(OC)nc(OC)n1	> 1 mM	
N#Cc1ccc(CSc2nc(SCc3ccccc3)nc(=O)[nH]2)cc1	0.153 mM	
O=c1nc(SCc2ccccc2)nc(SCC2CCCCC2)[nH]1	> 1 mM	
COc1ccc(CNc2nc(Cl)nc(Cl)n2)cc1	> 1 mM	
N#Cc1ccccc1CSc1nc(SCc2ccccc2)nc(=O)[nH]1	0.522 mM	
CC(C)OC(=O)C(C)NC(=O)c1ccc(Nc2nc(Cl)nc(Cl)n2)cc1 (stereo unspecified)	> 1 mM	
COc1cc([C@@H]2c3cc4c(cc3[C@@H](O[C@@H]3O[C@@H]5CO[C@@H](C)O[C@H]5[C@H](O)[C@H]3O)[C@H]3COC(=O)[C@H]23)OCO4)cc(OC)c1O		Activity [5]: 3.25%; Activity [6]: 14.2%; Activity [7]: 68.8%; Activity [8]: 88.3%; Activity [10]: 12.4%; Activity [11]: 34.3%; Activity [12]: 36.1%; Activity [13]: 32.5%; Activity [20]: 18.1%; Activity [26]: 34.6%; Activity [21]: 65.4%; Activity [22]: 45.8%; Activity [27]: 31.8%; Activity [23]: 18.7%
COc1nc(OC)nc(Sc2ccccc2C(=O)O)n1	> 1 mM	
Clc1nc(Cl)nc(Nc2ccccc2Br)n1	> 1 mM	
Cc1ccc(-c2nc(S)[nH]c(=O)n2)cc1	> 1 mM	
Nc1ccc(-c2nc(=S)[nH]c(=O)[nH]2)cc1	> 1 mM	
CCCSc1nc(SCc2ccccc2)[nH]c(=O)n1	> 1 mM	
N#Cc1ccc(CSc2nc(SCc3ccccc3)nc(=O)[nH]2)c(F)c1	0.486 mM	
O=c1nc(-c2cccc([N+](=O)[O-])c2)nc(S)[nH]1	> 1 mM	
COc1ccc(CSc2nc(SCc3ccccc3)nc(=O)[nH]2)cc1	> 1 mM	
CC(C)(C)c1ccccc1Nc1nc(Cl)nc(Cl)n1	> 1 mM	
CN(CCO)c1nc(Cl)nc(Nc2ccccc2CCO)n1	> 1 mM	
O=c1nc(SCc2ccccc2)nc(SCc2ccccc2[N+](=O)[O-])[nH]1	0.377 mM	
O=C(O)c1ccccc1Sc1nc(Cl)nc(Cl)n1	> 1 mM	
O=c1nc(SCc2ccccc2)nc(SCc2ccc([N+](=O)[O-])cc2)[nH]1	0.359 mM	
O=c1nc(SCc2ccccc2)nc(SCC2CC2)[nH]1	0.481 mM	
CCCCSc1nc(SCc2ccccc2)nc(=O)[nH]1	0.235 mM	

From ChEMBL document CHEMBL3593218, “4,6-Substituted-1,3,5-triazin-2(1H)-ones as monocyclic catalytic inhibitors of human DNA topoisomerase IIα targeting the ATP binding site” (Bioorg Med Chem, 2015)
